Data set [1] is described as follows: Whole-body autoradiography. The class given is in vivo, rat. The method, then:
Whole-body autoradiography in rats was conducted using [^14C]-radiolabelled fexinidazole. The site of the [^14C] label in the fexinidazole molecule on the bridging carbon atom ensured that the radioactivity would remain associated with both the sulfoxide and sulfone metabolites. The radiolabelled compound was administered at the dose of 800 mg/kg (approximately 3.7 MBq/kg, 100 µCi/kg) by gastric gavage to eight male albino Sprague Dawley rats. Two animals were sacrificed at each time point 2, 8, 24 or 48 h after administration and the quantitative radioactivity distribution in the organs and tissues was evaluated using quantitative whole-body autoradiography. […]
This study was conducted according to Protocol N° 0510-2007. A copy of the experimental protocol is included in Appendix 1.
FEXINIDAZOLE is a 5-nitroimidazole derivative biologically active against Trypanosoma parasites (T.b. rhodesiense and T.b. brucei) and useful in the treatment of the Human African Trypanosomiasis (HAT), known as sleeping sickness.
FEXINIDAZOLE is a compound currently under development by the Study Sponsor.
The objective of this study was to obtain information on the tissue distribution of radioactive drug-related material following oral administration of [14C]-FEXINIDAZOLE (800 mg/kg) to male Sprague Dawley rats.
The albino Sprague Dawley rat was chosen as the species for this study since it was one of the species used in the toxicological evaluation of the test compound. Only male animals were used as no gender differences were expected with respect to the aim of the study. The oral route of administration was chosen as this is the intended therapeutic route. The dose level was selected in agreement with the Study Sponsor and it is within the pharmacological relevant range. No overt toxicity was expected after single dosing at […]
The study was conducted on 8 male animals after single oral administration of [14C]- FEXINIDAZOLE (800 mg/kg, approximately 3.7 MBq/kg, 100 µCi/kg). The animals were sacrificed at 2, 8,24 and 48 hours after administration and each rat was analyzed by a validated Whole Body Autoradioluminography (WBA) method, in order to evaluate the quantitative tissue distribution of radioactivity.
A summary of the experimental design is reported below:
Animal no. Date of Dosing Administered Dose Samples collected and (oral administration) analyzed
M3, M4 100 µCi/kg Whole body sections
The experimental phase of the study started on June 10, 2008 and was completed on July […]
6.6. Preparation and Analysis of Dose Formulation
The test formulation was prepared on the day of dosing by suspending unlabelled FEXINIDAZOLE and [14C]-FEXINIDAZOLE (see section 6.1) in 5% Tween 80 and 0.5% Methyl cellulose 400 cP (Methocel) in water, in order to obtain [14C]- FEXINIDAZOLE at the final target concentration of 80 mg/mL, corresponding to a radioactivity concentration of about 370 kBq/mL (10 µCi/mL).
The test formulation was prepared by suspending an appropriate amount of unlabelled FEXINIDAZOLE in the dose vehicle. This formulation was homogenised using a Potter-Elvehjem homogenizer apparatus (teflon pestle of approx. 30 mm x 53 mm and glass tube of 40 mL), in order to obtain a fine suspension by up-and-down strokes, gently made by hand. The formulation was then collected and transferred from the homogeniser glass tube to the glass pot containing the [14C]-FEXINIDAZOLE.
During the preparation the test formulation was protected from light as far as possible.
The radioactivity concentration and homogeneity of the test formulation were determined, before administration, by liquid scintillation counting of triplicate weighed aliquots of test formulation. The radiolabelled test formulation was used immediately after formulation.
6.7.1. Administered Doses
The dose of [14C]-FEXINIDAZOLE was orally administered by gastric gavage at the target dose level of 800 mg/kg (radioactivity dose of about 3.7 MBq/kg, 100 µCi/kg) and at a target dose volume of about 10 mL/kg. […]

Data set [2] in a line: Cardiovascular safety by telemetry. Particulars: single oral dose. The method, then:
Cardiovascular safety parameters were assessed in beagle dogs. Four adult (>1 year old) beagle dogs were given oral doses of fexinidazole at 100, 300 and 1000 mg/kg in an escalating dose design.
6.3. Treatment and Experimental Design
Experimental Day Treatmenta Dose (mg/kg) Volume Animal numbers (males) […]
a) Animals were treated following an escalating dose design with an adequate washout (at least 5 half lives of the longer lasting metabolite) between doses
Doses of 100, 300 and 1000 mg/kg of fexinidazole were selected based on the results of a […]
The oral route is that intende d for clinical administration.
6.3.1. Clinical Observation […]
dosing. Body weights are not reported here but they are archived with the study file.
6.3.2. Telemetry recordings
On the day of dosing, telemetry signals from each animal were collected continuously […]
The following parameters were calculated:
− Systolic blood pressure (SBP, mmHg)
− Diastolic blood pressure (DBP, mmHg)
− Average blood pressure (ABP, mmHg)
− Heart rate (HR, bpm, from the blood pressure signal)
− ECG intervals (RR, PR, QRS and QT, ms)
− Body temperature (BT, °C)
All the above-mentioned parameters were extracted automatically by the Notocord HEM acquisition software (Notocord, Croissy-sur-Seine, France) as the average value of 10-second recordings. […]

Where “and” joins values, the source holds several entries; their conditions need not be identical. Identical values can stand only once.

Take `CSc1ccc(OCc2ncc([N+](=O)[O-])n2C)cc1` [Fexinidazole, 1-methyl-2-((p-(methylthio)phenoxy)methyl)-5-nitroimidazole]: the “brain-to-blood concentration ratio of radioactivity” value in data set [1] (800 mg/kg po, all times) is listed as 0.4–0.6. Further, the Mean radioactivity concentration in data set [1] (Blood, 2h) is on record as 303.2 µgeq/g; in data set [1] (Blood, 8h) it was 273.0 µgeq/g; in data set [1] (Blood, 24h) it was 51.3 µgeq/g; in data set [1] (Blood, 48h), 14.3 µgeq/g; in data set [1] (Brain, 2h) it was 159.7 µgeq/g; in data set [1] (Brain, 8h) it was 148.5 µgeq/g. Further, the Mean radioactivity concentration was found to be 22.4 µgeq/g in data set [1] (Brain, 24h) and 5.7 µgeq/g in data set [1] (Brain, 48h). Further, in data set [1] (Intestine wall, 2h, listed as [14C]-FEXINIDAZOLE), the Radioactivity concentration was 4900 - 5600 µgeq/g and 5281.4 µgeq/g. Further, in data set [2], the “NOEL on body temperature” value is 100 mg/kg. In data set [2], the “NOEL on cardiovascular parameters and ECG intervals” value stood at 1000 mg/kg.

Values taken from paper PMC3006138, “Fexinidazole – A New Oral Nitroimidazole Drug Candidate Entering Clinical Development for the Treatment of Sleeping Sickness” (PLoS Neglected Tropical Diseases, 2010).
